The record followed here is patent US9765067B2, “Thiophen-2-yl-pyridin-2-yl-1H-pyrazole-4-carboxylic acid derivatives and the use thereof as soluble guanylate cyclase activators” (Novartis AG, priority 2014, dated 2017).

Structures are written as SMILES. Values joined by “and” are separate entries in the source; they are usually repeats but may differ in a detail not shown here. Equal entries are not always repeated. Bounds are passed on as bounds.

This assay has as its target T1, soluble guanylate cyclase (human GUCYA3/GUCYB3) overexpressed in CHO cells (Homo sapiens, UniProt Q02108+Q02153).
T1 construct: expressed in transfected cells
T1 sequence (Q02108 1-690 partner): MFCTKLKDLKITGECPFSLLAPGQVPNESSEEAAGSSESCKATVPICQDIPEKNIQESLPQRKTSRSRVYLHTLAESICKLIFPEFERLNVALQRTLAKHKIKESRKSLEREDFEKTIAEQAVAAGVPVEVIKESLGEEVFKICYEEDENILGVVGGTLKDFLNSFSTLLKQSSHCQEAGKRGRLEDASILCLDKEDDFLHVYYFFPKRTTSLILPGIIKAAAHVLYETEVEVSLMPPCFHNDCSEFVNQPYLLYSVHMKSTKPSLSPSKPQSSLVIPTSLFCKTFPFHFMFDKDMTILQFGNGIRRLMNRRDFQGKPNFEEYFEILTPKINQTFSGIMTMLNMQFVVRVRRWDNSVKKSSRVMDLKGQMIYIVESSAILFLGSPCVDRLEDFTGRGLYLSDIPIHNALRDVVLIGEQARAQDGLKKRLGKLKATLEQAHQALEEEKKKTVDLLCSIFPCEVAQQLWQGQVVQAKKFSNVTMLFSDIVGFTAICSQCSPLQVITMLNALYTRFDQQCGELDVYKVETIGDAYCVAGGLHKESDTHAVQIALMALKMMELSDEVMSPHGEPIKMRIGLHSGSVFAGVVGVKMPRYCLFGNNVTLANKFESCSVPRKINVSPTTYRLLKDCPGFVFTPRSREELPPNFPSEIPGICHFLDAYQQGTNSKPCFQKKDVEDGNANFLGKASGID
T1 sequence (Q02153 1-619): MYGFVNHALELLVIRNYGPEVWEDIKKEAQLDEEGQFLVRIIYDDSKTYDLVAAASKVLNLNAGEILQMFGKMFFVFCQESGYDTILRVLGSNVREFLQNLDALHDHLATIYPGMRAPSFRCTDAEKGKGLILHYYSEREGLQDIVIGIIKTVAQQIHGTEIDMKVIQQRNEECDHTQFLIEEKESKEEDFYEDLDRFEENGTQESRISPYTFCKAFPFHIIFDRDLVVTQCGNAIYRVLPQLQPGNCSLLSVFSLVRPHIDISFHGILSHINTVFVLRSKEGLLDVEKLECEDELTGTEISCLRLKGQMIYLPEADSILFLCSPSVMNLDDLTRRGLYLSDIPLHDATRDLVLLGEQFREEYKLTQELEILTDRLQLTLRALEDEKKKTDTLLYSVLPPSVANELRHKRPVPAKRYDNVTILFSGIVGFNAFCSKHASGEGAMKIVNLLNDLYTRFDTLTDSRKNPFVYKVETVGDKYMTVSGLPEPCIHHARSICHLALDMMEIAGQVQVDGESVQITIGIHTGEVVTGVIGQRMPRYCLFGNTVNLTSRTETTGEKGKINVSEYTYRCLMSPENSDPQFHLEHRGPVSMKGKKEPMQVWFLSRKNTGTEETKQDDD
The assay can be described thus: CHO cellular assay (cGMP production, HTRF). In kind it is cell-based. Particulars: CHO K1 clone 8E10 overexpressing human sGC, Cisbio HTRF, 1 h room temperature, 1 mM IBMX, 20 uM ODQ, minimum quantification limit 0.5 nM. The procedure, abridged:
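Stable CHO K1 clone expressing human GUCYA3/GUCYB3. Compounds applied 1 h at room temperature in HBSS, 0.1% BSA, 1 mM IBMX, 20 uM ODQ, 0.5% DMSO. cGMP measured by HTRF and interpolated from a standard curve; EC50 from 4-parameter sigmoidal fit.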
Background: TR-FRET usually uses a lanthanide donor and a delayed reading to cut background.
As to `CCc1cc(OCc2cc(C)sc2-c2cccc(-n3ncc(C(=O)O)c3C(F)(F)F)n2)ccc1C1CCN(C(=O)CC2CC2)CC1` [Example 12-4, 1-(6-(3-((4-(1-(2-Cyclopropylacetyl)piperidin-4-yl)-3-ethylphenoxy)methyl)-5-methylthiophen-2-yl)pyridin-2-yl)-5-(trifluoromethyl)-1H-pyrazole-4-carboxylic acid], the EC50 (as a rule, the concentration at which the effect is half-maximal) is at most 0.5 nM.

For `Cc1cc(C2CCN(C(=O)C3CC(O)C3)CC2)ccc1OCc1ccsc1-c1cccc(-n2ncc(C(=O)O)c2C(F)(F)F)n1` (stereo not shown) [Example 12-5, 1-(6-(3-((4-(1-(3-Hydroxycyclobutanecarbonyl)piperidin-4-yl)-2-methylphenoxy)methyl)thiophen-2-yl)pyridin-2-yl)-5-(trifluoromethyl)-1H-pyrazole-4-carboxylic acid], the EC50 stood at 46 nM.

As to `Cc1cc(C2CCN(C(=O)C3COC3)CC2)ccc1OCc1ccsc1-c1cccc(-n2ncc(C(=O)O)c2C(F)(F)F)n1` [Example 12-7, 1-(6-(3-((2-Methyl-4-(1-(oxetane-3-carbonyl)piperidin-4-yl)phenoxy)methyl)thiophen-2-yl)pyridin-2-yl)-5-(trifluoromethyl)-1H-pyrazole-4-carboxylic acid], the EC50 was 7.5 nM.

Consider `CCc1cc(OCc2cc(C)sc2-c2cccc(-n3ncc(C(=O)O)c3C)n2)ccc1C1CCN(C(=O)CC2CC2)CC1` [Example 12-8, 1-(6-(3-((4-(1-(2-Cyclopropylacetyl)piperidin-4-yl)-3-ethylphenoxy)methyl)-5-methylthiophen-2-yl)pyridin-2-yl)-5-methyl-1H-pyrazole-4-carboxylic acid], for which the EC50 is 4.4 nM and 1 nM.

As for `CCc1cc(OCc2cc(C)sc2-c2cccc(-n3ncc(C(=O)O)c3C(F)(F)F)n2)ccc1C1CCN(C(=O)C(C)(C)CO)CC1` [Example 12-10, 1-(6-(3-((3-Ethyl-4-(1-(3-hydroxy-2,2-dimethylpropanoyl)piperidin-4-yl)phenoxy)methyl)-5-methylthiophen-2-yl)pyridin-2-yl)-5-(trifluoromethyl)-1H-pyrazole-4-carboxylic acid], a half-maximal effect (EC50) was put at 33 nM.

Regarding `CCc1cc(OCc2cc(C)sc2-c2cccc(-n3ncc(C(=O)O)c3C(F)(F)F)n2)ccc1C1CCN(C(=O)CO)CC1` [Example 12-11, 1-(6-(3-((3-Ethyl-4-(1-(2-hydroxyacetyl)piperidin-4-yl)phenoxy)methyl)-5-methylthiophen-2-yl)pyridin-2-yl)-5-(trifluoromethyl)-1H-pyrazole-4-carboxylic acid], a half-maximal effect (EC50) was put at 36 nM.

For the compound `Cc1cc(C2CCN(CC(F)(F)F)CC2)ccc1OCc1ccsc1-c1cccc(-n2ncc(C(=O)O)c2C(F)(F)F)n1` [Example 13, 1-(6-(3-((2-Methyl-4-(1-(2,2,2-trifluoroethyl)piperidin-4-yl)phenoxy)methyl)thiophen-2-yl)pyridin-2-yl)-5-(trifluoromethyl)-1H-pyrazole-4-carboxylic acid], the EC50 amounted to 1 nM.

`O=C(O)c1cnn(-c2cccc(-c3sccc3COc3ccc(C4CCN(CC(F)(F)F)CC4)cc3)n2)c1C(F)(F)F` [Example 14-1, 1-(6-(3-((4-(1-(2,2,2-Trifluoroethyl)piperidin-4-yl)phenoxy)methyl)thiophen-2-yl)pyridin-2-yl)-5-(trifluoromethyl)-1H-pyrazole-4-carboxylic acid] displayed a concentration for a half-maximal effect (EC50) of 12 nM.

`Cc1cc(C2CCN(CC3CC3)CC2)ccc1OCc1ccsc1-c1cccc(-n2ncc(C(=O)O)c2C(F)(F)F)n1` [Example 14-2, 1-(6-(3-((4-(1-(Cyclopropylmethyl)piperidin-4-yl)-2-methylphenoxy)methyl)thiophen-2-yl)pyridin-2-yl)-5-(trifluoromethyl)-1H-pyrazole-4-carboxylic acid]: the EC50 was 430 nM.

Turning to `Cc1cc(C2CCN(C(=O)C3CC3)CC2)ccc1NCc1ccsc1-c1cccc(-n2ncc(C(=O)O)c2C)n1` [Example 15, 1-(6-(3-(((4-(1-(Cyclopropanecarbonyl)piperidin-4-yl)-2-methylphenyl)amino)methyl)thiophen-2-yl)pyridin-2-yl)-5-methyl-1H-pyrazole-4-carboxylic acid], the EC50 was at most 0.5 nM.

On to `Cc1cc(C2CCN(C(=O)C3CC3)CC2)ccc1NCc1ccsc1-c1cccc(-n2ncc(C(=O)O)c2C(F)(F)F)n1` [Example 16-1, 1-(6-(3-(((4-(1-(Cyclopropanecarbonyl)piperidin-4-yl)-2-methylphenyl)amino)methyl)thiophen-2-yl)pyridin-2-yl)-5-(trifluoromethyl)-1H-pyrazole-4-carboxylic acid], for which the EC50 turned out to be 8.8 nM.

On to `Cc1cc(CNc2ccc(C3CCN(C(=O)C4CC4)CC3)cc2C)c(-c2cccc(-n3ncc(C(=O)O)c3C)n2)s1` [Example 16-2, 1-(6-(3-(((4-(1-(Cyclopropanecarbonyl)piperidin-4-yl)-2-methylphenyl)amino)methyl)-5-methylthiophen-2-yl)pyridin-2-yl)-5-methyl-1H-pyrazole-4-carboxylic acid], for which the concentration giving a half-maximal response (EC50) worked out at 1 nM. Compared with the last compound, the EC50 is about 8.8-fold lower.

`Cc1cc(CNc2ccc(C3CCN(C(=O)C4CC4)CC3)cc2)c(-c2cccc(-n3ncc(C(=O)O)c3C)n2)s1` [Example 16-3, 1-(6-(3-(((4-(1-(Cyclopropanecarbonyl)piperidin-4-yl)phenyl)amino)methyl)-5-methylthiophen-2-yl)pyridin-2-yl)-5-methyl-1H-pyrazole-4-carboxylic acid] had an EC50 of at most 0.5 nM.

The compound `CCc1c(C)sc(-c2cccc(-n3ncc(C(=O)O)c3C(F)(F)F)n2)c1COc1ccc(C2CCN(C(=O)C3CC3)CC2)cc1C` [Example 17, 1-(6-(3-((4-(1-(Cyclopropanecarbonyl)piperidin-4-yl)-2-methylphenoxy)methyl)-4-ethyl-5-methylthiophen-2-yl)pyridin-2-yl)-5-(trifluoromethyl)-1H-pyrazole-4-carboxylic acid] showed an EC50 of 1 nM.

The compound `Cc1cc(C2CCN(C(=O)C3CC3)CC2)ccc1OCc1c(-c2cccc(-n3ncc(C(=O)O)c3C(F)(F)F)n2)sc(C)c1C(C)C` [Example 18-1, 1-(6-(3-((4-(1-(Cyclopropanecarbonyl)piperidin-4-yl)-2-methylphenoxy)methyl)-4-isopropyl-5-methylthiophen-2-yl)pyridin-2-yl)-5-(trifluoromethyl)-1H-pyrazole-4-carboxylic acid] yielded an EC50 of 7 nM. This EC50 is about 7-fold higher than that of the compound before.

`CCc1c(C(=O)O)cnn1-c1cccc(-c2sc(C)cc2COc2ccc(C3CCN(CC(F)(F)F)CC3)cc2C)n1` [Example 18-2, 5-Ethyl-1-(6-(5-methyl-3-((2-methyl-4-(1-(2,2,2-trifluoroethyl)piperidin-4-yl)phenoxy)methyl)thiophen-2-yl)pyridin-2-yl)-1H-pyrazole-4-carboxylic acid] gave an EC50 of 2 nM.

In turn, `CCc1c(C(=O)O)cnn1-c1cccc(-c2sc(C)c(C)c2COc2ccc(C3CCN(CC(F)(F)F)CC3)cc2C)n1` [Example 18-3, 1-(6-(4,5-Dimethyl-3-((2-methyl-4-(1-(2,2,2-trifluoroethyl)piperidin-4-yl)phenoxy)methyl)thiophen-2-yl)pyridin-2-yl)-5-ethyl-1H-pyrazole-4-carboxylic acid] came in with an EC50 of 2 nM. This lies in the single-digit nanomolar range.

Compound `CCc1csc(-c2cccc(-n3ncc(C(=O)O)c3C(F)(F)F)n2)c1COc1ccc(C2CCN(C(=O)C3CC3)CC2)cc1C` [Example 18-4, 1-(6-(3-((4-(1-(Cyclopropanecarbonyl)piperidin-4-yl)-2-methylphenoxy)methyl)-4-ethylthiophen-2-yl)pyridin-2-yl)-5-(trifluoromethyl)-1H-pyrazole-4-carboxylic acid] gave an EC50 of 5.9 nM.

Consider `Cc1cc(C2CCN(CC(F)(F)F)CC2)ccc1OCc1c(-c2cccc(-n3ncc(C(=O)O)c3C(F)(F)F)n2)sc(C)c1C` [Example 18-5, 1-(6-(4,5-Dimethyl-3-((2-methyl-4-(1-(2,2,2-trifluoroethyl)piperidin-4-yl)phenoxy)methyl)thiophen-2-yl)pyridin-2-yl)-5-(trifluoromethyl)-1H-pyrazole-4-carboxylic acid], for which the response was half-maximal at 3.5 nM (EC50).
